Data: patent US7307044B2, “3-biphenyl-substituted-3-substituted-4-ketolactam and ketolactone and their utilization as pesticide” (Bayer CropScience AG, priority 2001, dated 2007)

How the values were obtained:
[1] = tested on: larvae of the mustard beetle (Phaedon cochleariae); assay: Phaedon larvae test; assay type: in vivo; conditions: cabbage leaves dipped
Protocol: (§1) Phaedon Larvae Test Solvent: 7 parts by weight of dimethylformamide Emulsifier: 2 parts by weight of alkylaryl polyglycol ether To produce a suitable preparation of active compound, 1 part by weight of active compound is mixed with the stated amounts of solvent and emulsifier, and the concentrate is diluted with emulsifier-containing water to the desired concentration. Cabbage leaves (Brassica oleracea) are treated by being dipped into the preparation of active compound of the desired concentration and are populated with larvae of the mustard beetle (Phaedon cochleariae) while the leaves are still moist. After the desired period of time, the kill in % is determined. 100% means that all beetle larvae have been killed; 0% means that none of the beetle larvae have been killed.

[2] = tested on: Amaranthus; assay: Post-emergence test (greenhouse); assay type: in vivo; conditions: 250 g ai/ha, after three weeks
Protocol: (§2) Solvent: 5 parts by weight of acetone
(§3) Emulsifier: 1 part by weight of alkylaryl polyglycol ether
(§4) To produce a suitable preparation of active compound, 1 part by weight of active compound is mixed with the stated amount of solvent, the stated amount of emulsifier is added and the concentrate is diluted with water to the desired concentration.
(§5) Test plants of a height of 5-15 cm are sprayed with the preparation of active compound such that the particular amounts of active compound desired are applied per unit area. The concentration of the spray liquor is chosen such that the particular amounts of active compound desired are applied in 1000 l of water/ha.
(§6) After three weeks, the degree of damage to the plants is rated in % damage in comparison to the development of the untreated control.
(§7) The figures denote: • 0%=no effect (like untreated control) • 100%=total destruction

[3] = tested on: Alopecurus; assay: Post-emergence test (greenhouse); assay type: in vivo; conditions: 250 g ai/ha, after three weeks
Protocol: as §2, §3, §4, §5, §6, §7

[4] = tested on: Avena fatua; assay: Post-emergence test (greenhouse); assay type: in vivo; conditions: 250 g ai/ha, after three weeks
Protocol: as §2, §3, §4, §5, §6, §7

[5] = tested on: Echinochloa; assay: Post-emergence test (greenhouse); assay type: in vivo; conditions: 250 g ai/ha, after three weeks
Protocol: as §2, §3, §4, §5, §6, §7

[6] = tested on: Setaria; assay: Post-emergence test (greenhouse); assay type: in vivo; conditions: 250 g ai/ha, after three weeks
Protocol: as §2, §3, §4, §5, §6, §7

[7] = tested on: green peach aphid (Myzus persicae); assay: Myzus test; assay type: in vivo; conditions: 500 ppm, cabbage leaves dipped
Protocol: as §1, with “Myzus” for “Phaedon Larvae”, “oleracea) which are heavily infested by the green peach aphid (Myzus persicae)” for “oleracea)”, “concentration.” for “concentration and are populated with larvae of the mustard beetle (Phaedon cochleariae) while the leaves are still moist.”, “aphids” for “beetle larvae”

[8] = tested on: Plasmopara viticola; assay: Plasmopara test (grapevine)/protective; assay type: in vivo; conditions: protective, 100 g/ha, evaluation 6 days after inoculation
Protocol: Plasmopara Test (Grapevine)/Protective Solvents: 24.5 parts by weight of acetone • 24.5 parts by weight of dimethylacetamide Emulsifier: 1.0 part by weight of alkylaryl polyglycol ether To produce a suitable preparation of active compound, 1 part by weight of active compound is mixed with the stated amounts of solvent and emulsifier, and the concentrate is diluted with water to the desired concentration. To test for protective activity, young plants are sprayed with the preparation of active compound at the stated application rate. After the spray coating has dried on, the plants are inoculated with an aqueous spore suspension of Plasmopara viticola and then remain in an incubation cabin at 20° C. and 100% relative atmospheric humidity for 1 day. The plants are then placed in a greenhouse at about 21° C. and about 90% atmospheric humidity for 4 days. The plants are then moistened and placed in an incubation cabin for 1 day.

[9] = tested on: caterpillars of the armyworm (Spodoptera frugiperda); assay: Spodoptera frugiperda test; assay type: in vivo; conditions: cabbage leaves dipped
Protocol: as §1, with “Spodoptera frugiperda” for “Phaedon Larvae”, “caterpillars” for “larvae”, “armyworm (Spodoptera frugiperda)” for “mustard beetle (Phaedon cochleariae)”, “caterpillars” for “beetle larvae”

[10] = tested on: greenhouse red spider mite (Tetranychus urticae); assay: Tetranychus test (OP-resistent/dip treatment); assay type: in vivo; conditions: 100 ppm, bean plants dipped
Protocol: Tetranychus Test (OP-Resistent/Dip Treatment)
Solvent: 7 parts by weight of dimethylformamide
Emulsifier: 2 parts by weight of alkylaryl polyglycol ether
To produce a suitable preparation of active compound, 1 part by weight of active compound is mixed with the stated amounts of solvent and emulsifier, and the concentrate is diluted with emulsifier-containing water to the desired concentration.
Bean plants (Phaseolus vulgaris) which are heavily infested by all stages of the greenhouse red spider mite (Tetranychus urticae) are dipped into a preparation of active compound of the desired concentration.
After the desired period of time, the effect in % is determined. 100% means that all spider mites have been killed; 0% means that none of the spider mites have been killed.

[11] = tested on: apple scab pathogen Venturia inaequalis; assay: Venturia test (apple)/protective; assay type: in vivo; conditions: protective, 100 g/ha, evaluation 10 days after inoculation
Protocol: Venturia Test (Apple)/Protective Solvents: 24.5 parts by weight of acetone • 24.5 parts by weight of dimethylacetamide Emulsifier: 1.0 part by weight of alkylaryl polyglycol ether To produce a suitable preparation of active compound, 1 part by weight of active compound is mixed with the stated amounts of solvent and emulsifier, and the concentrate is diluted with water to the desired concentration. To test for protective activity, young plants are sprayed with the preparation of active compound at the stated application rate. After the spray coating has dried on, the plants are inoculated with an aqueous conidia suspension of the apple scab pathogen Venturia inaequalis and then remain in an incubation cabin at about 20° C. and 100% relative atmospheric humidity for 1 day. The plants are then placed in a greenhouse at about 21° C. and a relative atmospheric humidity of about 90%.

[12] = tested on: Sugar beet; assay: Post-emergence test (greenhouse); assay type: in vivo; conditions: 250 g ai/ha, after three weeks
Protocol: as §2, §3, §4, §5, §6, §7

[13] = tested on: caterpillars of the armyworm (Spodoptera exigua); assay: Spodoptera exigua test; assay type: in vivo; conditions: 500 ppm, cabbage leaves dipped
Protocol: as §1, with “Spodoptera exigua” for “Phaedon Larvae”, “caterpillars” for “larvae”, “armyworm (Spodoptera exigua)” for “mustard beetle (Phaedon cochleariae)”, “caterpillars” for “beetle larvae”

[14] = tested on: caterpillars of the diamondback moths (Plutella xylostella); assay: Plutella test; assay type: in vivo; conditions: 500 ppm, cabbage leaves dipped
Protocol: as §1, with “Plutella” for “Phaedon Larvae”, “caterpillars” for “larvae”, “diamondback moths (Plutella xylostella)” for “mustard beetle (Phaedon cochleariae)”, “caterpillars” for “beetle larvae”

[15] = physchem; assay type: physicochemical; conditions: for log P: pH 2.3
Protocol: The stated log P values were determined in accordance with EEC Directive 79/831 Annex V.A8 by HPLC (High Performance Liquid Chromatography) using a reversed-phase column (C 18). Temperature: 43° C. • (a) Mobile phases for the determination in the acidic range: 0.1% aqueous phosphoric acid, acetonitrile; linear gradient from 10% acetonitrile to 90% acetonitrile. • (b) Mobile phases for the determination in the neutral range: 0.01 molar aqueous phosphate buffer solution, acetonitrile; linear gradient from 10% acetonitrile to 90% acetonitrile.
Calibration was carried out using unbranched alkan-2-ones (of 3 to 16 carbon atoms) with known log P values (determination of the log P values by the retention times using linear interpolation between two successive alkanones).

Row | SMILES | Kill rate in % after 7 d ([1]; 500 ppm) | degree of damage to the plants in % damage [3] | degree of damage to the plants in % damage [4] | degree of damage to the plants in % damage [5] | degree of damage to the plants in % damage [6] | Kill rate in % after 6 d [7] | Kill rate in % after 7 d ([9]; 500 ppm) | Kill rate in % after 7 d [10] | log P [15] | further results
1 | Cc1ccc(-c2cccc(Cl)c2)cc1C1(Cl)C(=O)NC(C)(C)C1=O (stereo not shown) [Ex. I-1-3] | 100% | – | – | – | – | – | – | – | – | –
2 | Cc1cc(C)c(C2(Cl)C(=O)NC3(CCOCC3)C2=O)cc1-c1ccc(Cl)cc1 (stereo not shown) [Ex. I-1-6] | 100% | 70% | 100% | 100% | 95% | 98% | 100% | 99% | – | degree of damage to the plants in % damage [2]: 70%; % efficacy [8]: 94%; % efficacy [11]: 99%
3 | Cc1cc(C)c(C2(Cl)C(=O)NC3(CCCOC3)C2=O)cc1-c1ccc(Cl)cc1 (stereo not shown) [Ex. I-1-7] | 100% | 90% | 95% | 100% | 100% | 100% | 100% | 98% | – | –
4 | CCOC1CCC2(CC1)NC(=O)C(Cl)(c1c(C)cc(-c3ccc(Cl)cc3)cc1Cl)C2=O (stereo not shown) [Ex. I-1-9] | 100% | 95% | 100% | 100% | 100% | 95% | – | – | – | –
5 | Cc1ccc(-c2ccc(Cl)cc2)cc1C1(Cl)C(=O)NC(C)(C(C)C)C1=O (stereo not shown) [Ex. I-1-11] | 100% | 95% | 90% | 100% | 100% | – | 100% | 99% | – | degree of damage to the plants in % damage [12]: 0%; Kill rate in % after 7 d [13]: 90%; % efficacy [8]: 100%; Kill rate in % after 7 d [14]: 100%; % efficacy [11]: 100%
6 | COC1CCC2(CC1)NC(=O)C(Cl)(c1cc(-c3cccc(Cl)c3)ccc1Cl)C2=O (stereo not shown) [Ex. I-1-12] | 100% | – | – | – | – | – | 100% | 100% | – | % efficacy [8]: 94%; Kill rate in % after 7 d [14]: 100%
7 | COC1CCC2(CC1)NC(=O)C(Cl)(c1cc(-c3ccc(Cl)c(Cl)c3)ccc1C)C2=O (stereo not shown) [Ex. I-1-13] | 100% | 95% | 90% | 100% | 90% | 100% | 100% | 95% | – | Kill rate in % after 7 d [13]: 100%; % efficacy [8]: 94%; Kill rate in % after 7 d [14]: 100%
8 | Cc1ccc(-c2ccc(Cl)cc2)cc1C1(Cl)C(=O)NC2(CCOCC2)C1=O (stereo not shown) [Ex. I-1-14] | 100% | 80% | 100% | 100% | 100% | 100% | 100% | 99% | – | degree of damage to the plants in % damage [12]: 0%; % efficacy [8]: 100%
9 | Cc1ccc(-c2ccc(Cl)c(Cl)c2)cc1C1(Cl)C(=O)NC(C)(C)C1=O (stereo not shown) [Ex. I-1-15] | 100% | – | – | – | – | 95% | 100% | 99% | – | Kill rate in % after 7 d [13]: 100%; Kill rate in % after 7 d [14]: 100%
10 | Cc1ccc(-c2ccc(Cl)cc2)cc1C1(Cl)C(=O)OC(C)(C)C1=O (stereo not shown) [Ex. I-2-1] | – | – | – | – | – | – | – | 98% | – | chromatographic logP ([15]; pH 2.5): 4.8; Kill rate in % after 7 d ([1]; 1000 ppm): 100%; Kill rate in % after 7 d ([9]; 1000 ppm): 100%
11 | Cc1ccc(-c2ccc(Cl)cc2)cc1C1(Cl)C(=O)SC2(CCCCC2)C1=O (stereo not shown) [Ex. I-3-1] | 100% | – | – | – | – | – | – | – | – | –
12 | Cc1ccc(-c2ccc(Cl)cc2)cc1C1(Cl)C(=O)OC(C)(C(C)C)C1=O (stereo not shown) [I-2-5] | – | – | – | – | – | – | – | – | log P 5.61 | –
13 | Cc1cc(C)c(C2(Cl)C(=O)OC3(CCCC3)C2=O)cc1-c1ccc(Cl)cc1 (stereo not shown) [I-2-6] | – | – | – | – | – | – | – | – | log P 5.56 | –
14 | CCc1ccc(-c2ccc(Cl)cc2)cc1C1(Cl)C(=O)OC(C)(C)C1=O (stereo not shown) [I-2-7] | – | – | – | – | – | – | – | – | log P 5.05 | –
15 | Cc1ccc(-c2cccc(F)c2)cc1C1(Cl)C(=O)OC(C)(C)C1=O (stereo not shown) [I-2-11] | – | – | – | – | – | – | – | – | log P 4.30 | –
16 | CCOC1CCC2(CC1)OC(=O)C(Cl)(c1c(C)cc(-c3ccc(Cl)cc3)cc1CC)C2=O (stereo not shown) [I-2-13] | – | – | – | – | – | – | – | – | log P 5.59 | –
17 | Cc1cc(-c2ccc(Cl)cc2)cc(C)c1C1(Cl)C(=O)OC(C)(C)C1=O (stereo not shown) [I-2-14] | – | – | – | – | – | – | – | – | log P 5.11 | –
18 | Cc1cc(-c2ccc(Cl)cc2)cc(C)c1C1(Cl)C(=O)OC2(CCCOC2)C1=O (stereo not shown) [I-2-17] | – | – | – | – | – | – | – | – | log P 4.91 | –
